Assay results reported in patent US10981932B2, “Macrocyclic indole derivatives” (Bayer Aktiengesellschaft, priority 2016, dated 2021).
Counter-ions that a name gives are not always drawn. Like-named read-outs stand apart in the source and are kept apart here.

Key:
MCL-1 = MCL-1 (Homo sapiens, UniProt Q07820); test: Protein-protein interaction assay MCL-1/Noxa BH3 peptide (MCL-1 assay), TR-FRET; type: binding; conditions: MBP-MCL-1 / Noxa BH3-derived peptide, median
Summary of the method: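 Inhibition values were normalized between DMSO controls with all reagents and controls lacking MCL-1. The binding competition used 1 nM MBP-MCL-1 in pH 7 Tris buffer containing 50 mM KF and 100 mM NaCl, with a 10 min compound preincubation at 22 °C.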

SUDHL5 [1] = test: Induction of caspase-3/7 activity (Caspase-Glo 3/7), SUDHL5; type: cell-based; conditions: caspase-3/7 induction, SUDHL5 cells, 3 h treatment; median
Summary of the method: (§1)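 Apoptosis induction measured as caspase-3/7 activity (Caspase-Glo 3/7) in DLBCL lines after 3 h treatment at 37 °C; EC50 derived relative to the reference compound's maximal induction, with C0 fixed at 1.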

SUDHL10 [2] = test: Induction of caspase-3/7 activity (Caspase-Glo 3/7), SUDHL10; type: cell-based; conditions: caspase-3/7 induction, SUDHL10 cells, 3 h treatment, median
Summary of the method: as §1

SUDHL5 [3] = test: Anti-proliferative effect (CellTiter-Glo, 72 h), SUDHL5; type: cell-based; conditions: SUDHL5 cells, antiproliferation, 72 h incubation, median, read-out: Antiproli SUDHL5 [M] (median)
Summary of the method: (§2)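 After seeding, one plate is read right away by CellTiter-Glo luminescence to fix time zero. The treated plates stay at 37 °C in humidified air for 72 h and are then measured with the same reagent and 10 min incubation.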

A2780 = test: Anti-proliferative effect (CellTiter-Glo, 72 h), A2780; type: cell-based; conditions: A2780 cells, median, read-out: IC50 antiproliferation assay A2780 [M] (median)
Summary of the method: as §2

MV-4-11 = test: Anti-proliferative effect (CellTiter-Glo, 72 h), MV-4-11; type: cell-based; conditions: MV-4-11 cells, median, read-out: IC50 antiproliferation assay MV-4-11 [M] (median)
Summary of the method: as §2

SUDHL5 [4] = test: Induction of cytotoxicity (CellTiter-Glo, 5 h), SUDHL5; conditions: read-out: Cytotox SUDHL5 [M] (median); SUDHL5 cells, cytotoxicity induction, CellTiter-Glo, 5 h incubation, median
SUDHL10 [5] = test: Induction of cytotoxicity (CellTiter-Glo, 5 h), SUDHL10
[6] = read-out: Cytotox SUDHL10 [M] (median), SUDHL10 cells, cytotoxicity induction, CellTiter-Glo, 5 h incubation, median
[7] = Homo sapiens, SU-DHL10, 5 h, read-out: Cytotox SUDHL10 [M] (median), SUDHL10 cells, cytotoxicity induction, CellTiter-Glo, 5 h incubation, median

Chain of MCL-1 (Q07820 whole entry): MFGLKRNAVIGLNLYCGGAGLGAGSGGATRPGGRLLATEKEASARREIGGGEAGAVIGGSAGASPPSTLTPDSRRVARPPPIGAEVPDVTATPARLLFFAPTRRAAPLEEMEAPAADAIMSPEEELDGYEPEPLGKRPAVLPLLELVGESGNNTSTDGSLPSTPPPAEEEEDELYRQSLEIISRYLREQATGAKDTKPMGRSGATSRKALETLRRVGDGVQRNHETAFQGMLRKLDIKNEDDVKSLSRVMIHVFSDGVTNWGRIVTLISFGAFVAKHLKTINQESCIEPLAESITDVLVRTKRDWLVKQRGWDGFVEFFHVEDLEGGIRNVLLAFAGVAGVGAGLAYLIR

SMILES | IC50 (MCL-1) | EC50 (SUDHL5 [1]) | EC50 (SUDHL10 [2]) | IC50 (SUDHL5 [3]) | IC50 (A2780) | IC50 (MV-4-11) | IC50 (A2780; Homo sapiens, A2780, 72 h) | EC50 (SUDHL10 [2]; Homo sapiens, SU-DHL10, 3 h) | IC50 (SUDHL5 [3]; Homo sapiens, SU-DHL-5, 72 h) | IC50 (MV-4-11; Homo sapiens, MV4-11, 72 h) | IC50 (SUDHL5 [4]) | IC50 (SUDHL10 [5]; [6]) | IC50 (SUDHL10 [5]; [7])
Cn1nc(COC2CC2)c2c1COCCCCn1c(C(=O)O)c(CCCOc3cccc4ccccc34)c3cccc-2c31 (single isomer, unassigned) [Example 215, 3-[(cyclopropyloxy)methyl]-1-methyl-7-[3-(naphthalen-1-yloxy)propyl]-1,10,11,12,13,15-hexahydropyrazolo[4′,3′:9,10][1,6]oxazacycloundecino[8,7,6-hi]indole-8-carboxylic Acid] | 0.182 µM | > 33 µM | > 33 µM | 1.48e-05 M | > 3.3e-05 M | 2.33e-05 M |  |  |  |  | > 3.3e-05 M | > 3.3e-05 M | 
Cn1nc(CC(F)(F)F)c2c1COCCCCn1c(C(=O)O)c(CCCOc3cccc4ccccc34)c3cccc-2c31 (single isomer, unassigned) [Example 220, 1-methyl-7-[3-(naphthalen-1-yloxy)propyl]-3-(2,2,2-trifluoroethyl)-1,10,11,12,13,15-hexahydropyrazo[4′,3′:9,10][1,6]oxazacycloundecino[8,7,6-hi]indole-8-carboxylic acid-N-ethylethanamine Salt] | 0.00323 µM | 10.1 µM | > 33 µM |  |  |  | > 3.3e-05 M | 22.4 µM | 1.05e-05 M | 2.27e-05 M | 9.69e-06 M |  | > 3.3e-05 M
Cn1nc(CC(F)(F)F)c2c1COCCCCn1c(C(=O)O)c(CCCOc3cccc4ccccc34)c3cccc-2c31 (single isomer, unassigned) [Example 221, 1-methyl-7-[3-(naphthalen-1-yloxy)propyl]-3-(2,2,2-trifluoroethyl)-1,10,11,12,13,15-hexahydropyrazolo[4′,3′:9,10][1,6]oxazacycloundecino[8,7,6-hi]indole-8-carboxylic acid-N-ethylethanamine Salt] | 0.353 µM | > 33 µM | > 33 µM | 9.75e-06 M | 3.28e-05 M | > 3.3e-05 M |  |  |  |  | > 3.3e-05 M | > 3.3e-05 M | 
Cn1nc2c(c1OC(F)F)-c1cccc3c(CCCOc4cccc5ccccc45)c(C(=O)O)n(c13)CCCCOC2 (single isomer, unassigned) [Example 235, (−)-3-(difluoromethoxy)-2-methyl-7-[3-(naphthalen-1-yloxy)propyl]-2,10,11,12,13,15-hexahydropyrazolo[4′,3′:9,10][1,6]oxazacycloundecino[8,7,6-hi]indole-8-carboxylic Acid] | 0.0779 µM | > 33 µM |  |  |  |  | 1.8e-05 M | > 33 µM | 1.22e-05 M | 2.07e-05 M | > 3.3e-05 M |  | > 3.3e-05 M
Cn1nc2c(c1OC(F)F)-c1cccc3c(CCCOc4cccc5ccccc45)c(C(=O)O)n(c13)CCCCOC2 (single isomer, unassigned) [Example 236, (+)-3-(difluoromethoxy)-2-methyl-7-[3-(naphthalen-1-yloxy)propyl]-2,10,11,12,13,15-hexahydropyrazolo[4′,3′:9,10][1,6]oxazacycloundecino[8,7,6-hi]indole-8-carboxylic Acid] | 0.00678 µM | 11.2 µM | 25.1 µM | 9.48e-06 M | 2.6e-05 M | 2.19e-05 M |  |  |  |  | 1.06e-05 M | 2.52e-05 M | 
O=C(O)c1c(CCCOc2cccc3ccccc23)c2cccc3c2n1CCCCOCc1nn2c(c1-3)CCCC2 (single isomer, unassigned) [Example 254, 1-[3-(naphthalen-1-yloxy)propyl]-4,5,6,7,12,13,14,15-octahydro-9H-pyrido[1″,2″:1′,5′]pyrazolo[4′,3′:9,10][1,6]oxazacycloundecino[8,7,6-hi]indole-2-carboxylic Acid] | 0.00214 µM | 3.01 µM | 7.24 µM | 2.32e-06 M | 2.25e-05 M |  | > 3.3e-05 M |  |  | 8.59e-06 M | 3.21e-06 M | 8.11e-06 M | 

Now from value to compound, other results behind:

IC50 (MCL-1) | EC50 (SUDHL5 [1]) | EC50 (SUDHL10 [2]) | IC50 (SUDHL5 [3]) | IC50 (A2780) | IC50 (MV-4-11) | IC50 (A2780; Homo sapiens, A2780, 72 h) | EC50 (SUDHL10 [2]; Homo sapiens, SU-DHL10, 3 h) | IC50 (SUDHL5 [3]; Homo sapiens, SU-DHL-5, 72 h) | IC50 (MV-4-11; Homo sapiens, MV4-11, 72 h) | SMILES | IC50 (SUDHL5 [4]) | IC50 (SUDHL10 [5]; [6]) | IC50 (SUDHL10 [5]; [7])
0.00251 µM | 3.5 µM | 13.4 µM | 5.58e-06 M | 2.92e-05 M | 1.52e-05 M | > 3.3e-05 M |  |  |  | Cn1nc(C(F)(F)F)c2c1COCCCCn1c(C(=O)O)c(CCCOc3cccc4ccccc34)c3cccc-2c31 (single isomer, unassigned) [Example 217, 1-methyl-7-[3-(naphthalen-1-yloxy)propyl]-3-(trifluoromethyl)-1,10,11,12,13,15-hexahydropyrazolo[4′,3′:9,10][1,6]oxazacycloundecino[8,7,6-hi]indole-8-carboxylic Acid] | 3.92e-06 M | 1.58e-05 M | 
0.559 µM | > 33 µM | > 33 µM | 1.71e-05 M | 2.52e-05 M | 3.05e-05 M |  |  |  |  | Cn1nc(C(F)(F)F)c2c1COCCCCn1c(C(=O)O)c(CCCOc3cccc4ccccc34)c3cccc-2c31 (single isomer, unassigned) [Example 218, 1-methyl-7-[3-(naphthalen-1-yloxy)propyl]-3-(trifluoromethyl)-1,10,11,12,13,15-hexahydropyrazolo[4′3′:9,10][1,6]oxazacycloundecino[8,7,6-hi]indole-8-carboxylic Acid] | 2.76e-05 M | > 3.3e-05 M | 
0.00424 µM | 6.96 µM |  |  | > 3.3e-05 M |  |  | 26.2 µM | 9.92e-06 M | 1.79e-05 M | CN1CCCCn2c(C(=O)O)c(CCCOc3cccc4ccccc34)c3cccc(c32)-c2c(CC(F)(F)F)nn(C)c2C1 (single isomer, unassigned) [Example 223, 1,14-dimethyl-7-[3-(naphthalen-1-yloxy)propyl]-3-(2,2,2-trifluoroethyl)-10,11,12,13,14,15-hexahydro-1H-pyrazolo[3′,4′:8,9][1,6]diazacycloundecino[10,11,1-hi]indole-8-carboxylic Acid] | 8.33e-06 M | > 3.3e-05 M | 2.88e-05 M
0.395 µM | > 33 µM | > 33 µM | 6.03e-06 M | 1.45e-05 M | 1.22e-05 M |  |  |  |  | CN1CCCCn2c(C(=O)O)c(CCCOc3cccc4ccccc34)c3cccc(c32)-c2c(CC(F)(F)F)nn(C)c2C1 (single isomer, unassigned) [Example 224, 1,14-dimethyl-7-[3-(naphthalen-1-yloxy)propyl]-3-(2,2,2-trifluoroethyl)-10,11,12,13,14,15-hexahydro-1H-pyrazolo[3′,4′:8,9][1,6]diazacycloundecino[10,11,1-hi]indole-8-carboxylic Acid] | > 3.3e-05 M | 3.2e-05 M | 
0.00302 µM | 3.15 µM | 14.2 µM | 3.15e-06 M |  |  | > 3.3e-05 M |  |  | 2.09e-05 M | CN1CCCCn2c(C(=O)O)c(CCCOc3cccc4ccccc34)c3cccc(c32)-c2c(/C=C/F)nn(C)c2C1 (single isomer, unassigned) [Example 226, 3-[(E)-2-fluoroethenyl]-1,14-dimethyl-7-[3-(naphthalen-1-yloxy)propyl]-10,11,12,13,14,15-hexahydro-1H-pyrazolo[3′,4′:8,9][1,6]diazacycloundecino[10,11,1-hi]indole-8-carboxylic Acid] | 3.41e-06 M |  | 3.04e-05 M
0.0909 µM | > 33 µM | > 33 µM | 8.96e-06 M | 1.65e-05 M | 1.66e-05 M |  |  |  |  | CN1CCCCn2c(C(=O)O)c(CCCOc3cccc4ccccc34)c3cccc(c32)-c2c(/C=C/F)nn(C)c2C1 (single isomer, unassigned) [Example 227, 3-[(E)-2-fluoroethenyl]-1,14-dimethyl-7-[3-(naphthalen-1-yloxy)propyl]-10,11,12,13,14,15-hexahydro-1H-pyrazolo[3′,4′:8,9][1,6]diazacycloundecino[10,11,1-hi]indole-8-carboxylic Acid] | > 3.3e-05 M | > 3.3e-05 M | 
